# From patent publication US8030443B2, “Squamous cell carcinoma antigen-derived peptide binding to HLA-A24 molecule” (Kurume University, priority 2005, dated 2011)
# System: peptide-specific IgG in sera of cancer patients and healthy donors
# Assay: Measurement of anti-peptide IgG in plasma by LUMINEX multiplexed flow cytometric assay
# Assay type: binding, human
# Summary of the method: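 Plasma diluted 1/100 incubated with peptide-coupled colour-coded beads 2 h at RT, then biotinylated goat anti-human IgG (γ-chain) 1 h and streptavidin-PE 30 min; fluorescence read by multiplexed flow cytometry, >100 counted significant. Specificity checked by three rounds of absorption on corresponding versus irrelevant SCCA peptide.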
sequence,measurement,setting,value
"RFKVEESYDL (SCCA 286-295 peptide) [SCCA-derived peptide, position 286-295]",Total: healthy donors with significant peptide-reactive IgG / donors tested,"10 healthy donors, significant when fluorescence intensity exceeded 100 at 1/100 dilution",4/10
same,Total: cancer patients with significant peptide-reactive IgG / patients tested,"71 cancer patients, significant when fluorescence intensity exceeded 100 at 1/100 dilution",19/71
same,Specificity of IgG reactive to the peptide,absorption assay: corresponding vs irrelevant SCCA peptide-coated wells (FIG. 3),confirmed by absorption assay
same,Fluorescence intesity,"serum of Breast Ca. patient #36, 1:100 dilution",292
same,Fluorescence intesity,"serum of Breast Ca. patient #37, 1:100 dilution",54
same,Fluorescence intesity,"serum of Breast Ca. patient #38, 1:100 dilution",95
same,Fluorescence intesity,"serum of Breast Ca. patient #39, 1:100 dilution",117
same,Fluorescence intesity,"serum of Breast Ca. patient #40, 1:100 dilution",32
same,Fluorescence intesity,"serum of Breast Ca. patient #41, 1:100 dilution",321
same,Fluorescence intesity,"serum of Breast Ca. patient #42, 1:100 dilution",47
same,Fluorescence intesity,"serum of Breast Ca. patient #43, 1:100 dilution",58
same,Fluorescence intesity,"serum of Breast Ca. patient #44, 1:100 dilution",155
same,Fluorescence intesity,"serum of Breast Ca. patient #45, 1:100 dilution",80
same,Fluorescence intesity,"serum of Colon Ca. patient #66, 1:100 dilution",4
same,Fluorescence intesity,"serum of Colon Ca. patient #67, 1:100 dilution",35
same,Fluorescence intesity,"serum of Colon Ca. patient #68, 1:100 dilution",0
same,Fluorescence intesity,"serum of Colon Ca. patient #69, 1:100 dilution",8
same,Fluorescence intesity,"serum of Colon Ca. patient #70, 1:100 dilution",16
same,Fluorescence intesity,"serum of Colon Ca. patient #71, 1:100 dilution",45
same,Fluorescence intesity,"serum of Gastric Ca. patient #56, 1:100 dilution",243
same,Fluorescence intesity,"serum of Gastric Ca. patient #57, 1:100 dilution",9
same,Fluorescence intesity,"serum of Gastric Ca. patient #58, 1:100 dilution",27
same,Fluorescence intesity,"serum of Gastric Ca. patient #59, 1:100 dilution",258
same,Fluorescence intesity,"serum of Gastric Ca. patient #60, 1:100 dilution",79
same,Fluorescence intesity,"serum of Gastric Ca. patient #61, 1:100 dilution",286
same,Fluorescence intesity,"serum of Gastric Ca. patient #62, 1:100 dilution",0
same,Fluorescence intesity,"serum of Gastric Ca. patient #63, 1:100 dilution",7
same,Fluorescence intesity,"serum of Gastric Ca. patient #64, 1:100 dilution",40
same,Fluorescence intesity,"serum of Gastric Ca. patient #65, 1:100 dilution",37
same,Fluorescence intesity,"serum of Healthy Donor #1, 1:100 dilution",21
same,Fluorescence intesity,"serum of Healthy Donor #2, 1:100 dilution",219
same,Fluorescence intesity,"serum of Healthy Donor #3, 1:100 dilution",9
same,Fluorescence intesity,"serum of Healthy Donor #4, 1:100 dilution",0
same,Fluorescence intesity,"serum of Healthy Donor #5, 1:100 dilution",239
same,Fluorescence intesity,"serum of Healthy Donor #6, 1:100 dilution",2
same,Fluorescence intesity,"serum of Healthy Donor #7, 1:100 dilution",0
same,Fluorescence intesity,"serum of Healthy Donor #8, 1:100 dilution",516
same,Fluorescence intesity,"serum of Healthy Donor #9, 1:100 dilution",100
same,Fluorescence intesity,"serum of Healthy Donor #10, 1:100 dilution",138
same,Fluorescence intesity,"serum of Pancreas Ca. patient #46, 1:100 dilution",0
same,Fluorescence intesity,"serum of Pancreas Ca. patient #47, 1:100 dilution",37
same,Fluorescence intesity,"serum of Pancreas Ca. patient #48, 1:100 dilution",946
same,Fluorescence intesity,"serum of Pancreas Ca. patient #49, 1:100 dilution",97
same,Fluorescence intesity,"serum of Pancreas Ca. patient #50, 1:100 dilution",0
same,Fluorescence intesity,"serum of Pancreas Ca. patient #51, 1:100 dilution",0
same,Fluorescence intesity,"serum of Pancreas Ca. patient #52, 1:100 dilution",275
same,Fluorescence intesity,"serum of Pancreas Ca. patient #53, 1:100 dilution",41
same,Fluorescence intesity,"serum of Pancreas Ca. patient #54, 1:100 dilution",48
same,Fluorescence intesity,"serum of Pancreas Ca. patient #55, 1:100 dilution",24
same,Fluorescence intesity,"serum of Uterine cervical Ca. patient #1, 1:100 dilution",75
same,Fluorescence intesity,"serum of Uterine cervical Ca. patient #2, 1:100 dilution",0
same,Fluorescence intesity,"serum of Uterine cervical Ca. patient #3, 1:100 dilution",21
same,Fluorescence intesity,"serum of Uterine cervical Ca. patient #4, 1:100 dilution",229
same,Fluorescence intesity,"serum of Uterine cervical Ca. patient #5, 1:100 dilution",58
same,Fluorescence intesity,"serum of Uterine cervical Ca. patient #6, 1:100 dilution",869
same,Fluorescence intesity,"serum of Uterine cervical Ca. patient #7, 1:100 dilution",15
same,Fluorescence intesity,"serum of Uterine cervical Ca. patient #8, 1:100 dilution",30
same,Fluorescence intesity,"serum of Uterine cervical Ca. patient #9, 1:100 dilution",93
same,Fluorescence intesity,"serum of Uterine cervical Ca. patient #10, 1:100 dilution",14
same,Fluorescence intesity,"serum of Uterine cervical Ca. patient #11, 1:100 dilution",23
same,Fluorescence intesity,"serum of Uterine cervical Ca. patient #12, 1:100 dilution",44
same,Fluorescence intesity,"serum of Uterine cervical Ca. patient #13, 1:100 dilution",29
same,Fluorescence intesity,"serum of Uterine cervical Ca. patient #14, 1:100 dilution",19
same,Fluorescence intesity,"serum of Uterine cervical Ca. patient #15, 1:100 dilution",129
same,Fluorescence intesity,"serum of Uterine cervical Ca. patient #16, 1:100 dilution",147
same,Fluorescence intesity,"serum of Uterine cervical Ca. patient #17, 1:100 dilution",63
same,Fluorescence intesity,"serum of Uterine cervical Ca. patient #18, 1:100 dilution",48
same,Fluorescence intesity,"serum of Uterine cervical Ca. patient #19, 1:100 dilution",62
same,Fluorescence intesity,"serum of Uterine cervical Ca. patient #20, 1:100 dilution",102
same,Fluorescence intesity,"serum of Uterine cervical Ca. patient #21, 1:100 dilution",21
same,Fluorescence intesity,"serum of Uterine cervical Ca. patient #22, 1:100 dilution",25
same,Fluorescence intesity,"serum of Uterine cervical Ca. patient #23, 1:100 dilution",60
same,Fluorescence intesity,"serum of Uterine cervical Ca. patient #24, 1:100 dilution",1779
same,Fluorescence intesity,"serum of Uterine cervical Ca. patient #25, 1:100 dilution",18
same,Fluorescence intesity,"serum of Uterine cervical Ca. patient #26, 1:100 dilution",97
same,Fluorescence intesity,"serum of Uterine cervical Ca. patient #27, 1:100 dilution",29
same,Fluorescence intesity,"serum of Uterine cervical Ca. patient #28, 1:100 dilution",139
same,Fluorescence intesity,"serum of Uterine cervical Ca. patient #29, 1:100 dilution",16
same,Fluorescence intesity,"serum of Uterine cervical Ca. patient #30, 1:100 dilution",34
same,Fluorescence intesity,"serum of Uterine cervical Ca. patient #31, 1:100 dilution",104
same,Fluorescence intesity,"serum of Uterine cervical Ca. patient #32, 1:100 dilution",19
same,Fluorescence intesity,"serum of Uterine cervical Ca. patient #33, 1:100 dilution",118
same,Fluorescence intesity,"serum of Uterine cervical Ca. patient #34, 1:100 dilution",16
same,Fluorescence intesity,"serum of Uterine cervical Ca. patient #35, 1:100 dilution",21
